Measurements: US8835378B2, “Multi-domain amphipathic helical peptides and methods of their use” (The United States of America as represented by the …, priority 2004, dated 2014)
Where a SMILES comes first, the peptide text is derived from it.

What was measured:
[1] = test system: red blood cells; assay: Red blood cell hemolysis assay; format: cell-based; conditions: 1 hour at 37° C.
Experimental: Red blood cells were incubated with the indicated concentration of the peptides for 1 hour at 37° C. Results are expressed as the mean of triplicates±1 SD.
Approximately 25% of the red blood cells were lysed after 1 hour at the maximum dose tested (FIG. 9). Overall, the modified peptides containing the Ala substitutions were less cytotoxic, and the degree of cytotoxicity closely correlated with the number of Ala substitutions.

[2] = test system: HeLa cells stably transfected with human ABCA1 cDNA (ABCA1 cells); assay: Cholesterol and phospholipid efflux from ABCA1 transfected cells; format: cell-based; conditions: for cholesterol efflux to other detergents compared with taurodeoxycholate: sublytic concentrations, ABCA1 cells and control cells; for cholesterol and phospholipid efflux from ABCA1 cells (in words): 18 hours
Experimental: (§1) Percentage efflux was calculated after subtracting the radioactive counts in the blank media (αMEM plus 1 mg/ml of BSA), and expressed as the percent of total radioactive counts removed from the cells during the efflux period.
(§2) Cell fixation was performed by a 10 minute treatment with 3% paraformaldehyde in phosphate buffered saline (PBS), followed by three washes with blank media. Lactate dehydrogenase (LDH) release from cells into the media was measured enzymatically (Roche Diagnostics, Indianapolis, Ind.) and expressed, after subtraction of LDH released into blank media, as the percentage of total cell LDH. Total cell LDH was determined after cell solubilization with 1% Triton X-100.

[3] = test system: HeLa cells transfected with only a hygromycin-resistant control plasmid (control cells); assay: Cholesterol and phospholipid efflux from control cells; format: cell-based, human; conditions: for cholesterol and phospholipid efflux from control cells (in words): 18 hours
Experimental: as §1, §2

[4] = test system: ABCA1 cells and control cells; assay: Cell morphology by light microscopy during efflux experiments; format: cell-based, human; conditions: light microscopy, during efflux experiments

CC(C)C[C@H](NC(=O)[C@H](Cc1c[nH]c2ccccc12)NC(=O)[C@H](CC(=O)O)NC(=O)[C@@H]1CCCN1C(=O)[C@H](Cc1ccccc1)NC(=O)[C@H](C)NC(=O)[C@H](CCC(=O)O)NC(=O)[C@H](CCCCN)NC(=O)[C@H](CC(C)C)NC(=O)[C@H](CCCCN)NC(=O)[C@H](CCC(=O)O)NC(=O)[C@H](C)NC(=O)[C@@H](NC(=O)[C@H](CCCCN)NC(=O)[C@H](CC(=O)O)NC(=O)[C@H](Cc1ccc(O)cc1)NC(=O)[C@H](Cc1ccccc1)NC(=O)[C@H](C)NC(=O)[C@H](CCCCN)NC(=O)[C@H](CC(C)C)NC(=O)[C@H](Cc1c[nH]c2ccccc12)NC(=O)[C@@H](N)CC(=O)O)C(C)C)C(=O)N[C@@H](CCCCN)C(=O)N[C@@H](C)C(=O)N[C@@H](Cc1ccccc1)C(=O)N[C@@H](Cc1ccc(O)cc1)C(=O)N[C@@H](CC(=O)O)C(=O)N[C@@H](CCCCN)C(=O)N[C@H](C(=O)N[C@@H](C)C(=O)N[C@@H](CCC(=O)O)C(=O)N[C@@H](CCCCN)C(=O)N[C@@H](C)C(=O)N[C@@H](CCCCN)C(=O)N[C@@H](CCC(=O)O)C(=O)N[C@@H](C)C(=O)N[C@@H](Cc1ccccc1)C(=O)O)C(C)C [1A] (H-DWLKAFYDKVAEKLKEAFPDWLKAFYDKVAEKAKEAF-OH; N-terminus and C-terminus assumed)
hemolysis / cytotoxicity to red blood cells (in words) [1]: moderate degree of hemolysis

CC(C)C[C@H](NC(=O)[C@H](Cc1c[nH]c2ccccc12)NC(=O)[C@H](CC(=O)O)NC(=O)[C@@H]1CCCN1C(=O)[C@H](Cc1ccccc1)NC(=O)[C@H](C)NC(=O)[C@H](CCC(=O)O)NC(=O)[C@H](CCCCN)NC(=O)[C@H](CC(C)C)NC(=O)[C@H](CCCCN)NC(=O)[C@H](CCC(=O)O)NC(=O)[C@H](C)NC(=O)[C@@H](NC(=O)[C@H](CCCCN)NC(=O)[C@H](CC(=O)O)NC(=O)[C@H](Cc1ccc(O)cc1)NC(=O)[C@H](Cc1ccccc1)NC(=O)[C@H](C)NC(=O)[C@H](CCCCN)NC(=O)[C@H](CC(C)C)NC(=O)[C@H](Cc1c[nH]c2ccccc12)NC(=O)[C@@H](N)CC(=O)O)C(C)C)C(=O)N[C@@H](CCCCN)C(=O)N[C@@H](C)C(=O)N[C@@H](Cc1ccccc1)C(=O)N[C@@H](Cc1ccc(O)cc1)C(=O)N[C@@H](CC(=O)O)C(=O)N[C@@H](CCCCN)C(=O)N[C@H](C(=O)N[C@@H](C)C(=O)N[C@@H](CCC(=O)O)C(=O)N[C@@H](CCCCN)C(=O)N[C@@H](C)C(=O)N[C@@H](CCCCN)C(=O)N[C@@H](CCC(=O)O)C(=O)N[C@@H](C)C(=O)N[C@@H](C)C(=O)O)C(C)C [2A] (H-DWLKAFYDKVAEKLKEAFPDWLKAFYDKVAEKAKEAA-OH; N-terminus and C-terminus assumed)
hemolysis / cytotoxicity to red blood cells (in words) [1]: moderate degree of hemolysis

CC(C)C[C@H](NC(=O)[C@H](Cc1c[nH]c2ccccc12)NC(=O)[C@H](CC(=O)O)NC(=O)[C@@H]1CCCN1C(=O)[C@H](Cc1ccccc1)NC(=O)[C@H](C)NC(=O)[C@H](CCC(=O)O)NC(=O)[C@H](CCCCN)NC(=O)[C@H](CC(C)C)NC(=O)[C@H](CCCCN)NC(=O)[C@H](CCC(=O)O)NC(=O)[C@H](C)NC(=O)[C@@H](NC(=O)[C@H](CCCCN)NC(=O)[C@H](CC(=O)O)NC(=O)[C@H](Cc1ccc(O)cc1)NC(=O)[C@H](Cc1ccccc1)NC(=O)[C@H](C)NC(=O)[C@H](CCCCN)NC(=O)[C@H](CC(C)C)NC(=O)[C@H](Cc1c[nH]c2ccccc12)NC(=O)[C@@H](N)CC(=O)O)C(C)C)C(=O)N[C@@H](CCCCN)C(=O)N[C@@H](C)C(=O)N[C@@H](C)C(=O)N[C@@H](Cc1ccc(O)cc1)C(=O)N[C@@H](CC(=O)O)C(=O)N[C@@H](CCCCN)C(=O)N[C@H](C(=O)N[C@@H](C)C(=O)N[C@@H](CCC(=O)O)C(=O)N[C@@H](CCCCN)C(=O)N[C@@H](C)C(=O)N[C@@H](CCCCN)C(=O)N[C@@H](CCC(=O)O)C(=O)N[C@@H](C)C(=O)N[C@@H](C)C(=O)O)C(C)C [3A] (H-DWLKAFYDKVAEKLKEAFPDWLKAAYDKVAEKAKEAA-OH; N-terminus and C-terminus assumed)
hemolysis / cytotoxicity to red blood cells (in words) [1]: moderate degree of hemolysis

CC(C)C[C@H](NC(=O)[C@H](Cc1c[nH]c2ccccc12)NC(=O)[C@H](CC(=O)O)NC(=O)[C@@H]1CCCN1C(=O)[C@H](Cc1ccccc1)NC(=O)[C@H](C)NC(=O)[C@H](CCC(=O)O)NC(=O)[C@H](CCCCN)NC(=O)[C@H](CC(C)C)NC(=O)[C@H](CCCCN)NC(=O)[C@H](CCC(=O)O)NC(=O)[C@H](C)NC(=O)[C@@H](NC(=O)[C@H](CCCCN)NC(=O)[C@H](CC(=O)O)NC(=O)[C@H](Cc1ccc(O)cc1)NC(=O)[C@H](Cc1ccccc1)NC(=O)[C@H](C)NC(=O)[C@H](CCCCN)NC(=O)[C@H](CC(C)C)NC(=O)[C@H](Cc1c[nH]c2ccccc12)NC(=O)[C@@H](N)CC(=O)O)C(C)C)C(=O)N[C@@H](CCCCN)C(=O)N[C@@H](C)C(=O)N[C@@H](C)C(=O)N[C@@H](Cc1ccc(O)cc1)C(=O)N[C@@H](CC(=O)O)C(=O)N[C@@H](CCCCN)C(=O)N[C@@H](C)C(=O)N[C@@H](C)C(=O)N[C@@H](CCC(=O)O)C(=O)N[C@@H](CCCCN)C(=O)N[C@@H](C)C(=O)N[C@@H](CCCCN)C(=O)N[C@@H](CCC(=O)O)C(=O)N[C@@H](C)C(=O)N[C@@H](C)C(=O)O [4A] (H-DWLKAFYDKVAEKLKEAFPDWLKAAYDKAAEKAKEAA-OH; N-terminus and C-terminus assumed)
hemolysis / cytotoxicity to red blood cells (in words) [1]: no appreciable hemolysis

CC(C)C[C@H](NC(=O)[C@H](CCCCN)NC(=O)[C@H](CCC(=O)O)NC(=O)[C@H](C)NC(=O)[C@@H](NC(=O)[C@H](CCCCN)NC(=O)[C@H](CC(=O)O)NC(=O)[C@H](Cc1ccc(O)cc1)NC(=O)[C@H](Cc1ccccc1)NC(=O)[C@H](C)NC(=O)[C@H](CCCCN)NC(=O)[C@H](CC(C)C)NC(=O)[C@H](Cc1c[nH]c2ccccc12)NC(=O)[C@@H](N)CC(=O)O)C(C)C)C(=O)N[C@@H](CCCCN)C(=O)N[C@@H](CCC(=O)O)C(=O)N[C@@H](C)C(=O)N[C@@H](Cc1ccccc1)C(=O)N1CCC[C@H]1C(=O)N[C@@H](CC(=O)O)C(=O)N[C@@H](Cc1c[nH]c2ccccc12)C(=O)N[C@@H](C)C(=O)N[C@@H](CCCCN)C(=O)N[C@@H](C)C(=O)N[C@@H](C)C(=O)N[C@@H](Cc1ccc(O)cc1)C(=O)N[C@@H](CC(=O)O)C(=O)N[C@@H](CCCCN)C(=O)N[C@@H](C)C(=O)N[C@@H](C)C(=O)N[C@@H](CCC(=O)O)C(=O)N[C@@H](CCCCN)C(=O)N[C@@H](C)C(=O)N[C@@H](CCCCN)C(=O)N[C@@H](CCC(=O)O)C(=O)N[C@@H](C)C(=O)N[C@@H](C)C(=O)O [5A] (H-DWLKAFYDKVAEKLKEAFPDWAKAAYDKAAEKAKEAA-OH; N-terminus and C-terminus assumed)
hemolysis / cytotoxicity to red blood cells (in words) [1]: no appreciable hemolysis

C[C@H](CCC(=O)NCCC[N+](C)(C)CCCS(=O)(=O)[O-])[C@H]1CC[C@H]2[C@@H]3[C@H](O)C[C@@H]4C[C@H](O)CC[C@]4(C)[C@H]3C[C@H](O)[C@]12C [CHAPS]
cholesterol efflux to other detergents compared with taurodeoxycholate [2]: Nearly identical results

C[C@H](CCC(=O)NCCS(=O)(=O)O)[C@H]1CC[C@H]2[C@@H]3CC[C@@H]4C[C@H](O)CC[C@]4(C)[C@H]3C[C@H](O)[C@]12C [taurodeoxycholate, reference compound]
cholesterol efflux from ABCA1 cells to detergent after fixation ([2]; 0.02%, 1 hour, after fixation with 3% paraformaldehyde): slightly increased after fixation | cholesterol efflux from ABCA1 cells to detergent ([2]; 0.02%, 1 hour, before fixation): small amount of cholesterol efflux | cholesterol efflux from control cells to detergent ([3]; 0.02%, 1 hour): Approximately the same amount of cholesterol efflux | effect on cell morphology [4]: did not alter the morphology of the cells

DWLKAFYDKVAEKLKEAFPDWLKAFYDKVA EKLKEAF [37pA, reference compound]
cholesterol and phospholipid efflux from ABCA1 cells (in words) [2]: promoted ABCA1-mediated cholesterol efflux | cholesterol and phospholipid efflux from control cells (in words) [3]: able to mediate cholesterol efflux from a control HeLa cell line

NP-40
cholesterol efflux to other detergents compared with taurodeoxycholate [2]: Nearly identical results

RMRITERDDFRGQMSEITDDCPSLQDRFHLTEVHSLRVLEGS (Gamma crystalline peptide.) [contains two non-amphipathic alpha helices of approximately the same length as the helices on 37pA, reference compound]
cholesterol and phospholipid efflux from ABCA1 cells (in words) [2]: completely ineffective | cholesterol and phospholipid efflux from control cells (in words) [3]: completely ineffective
